{"source": "patent US12677847B2", "about": "“Methods and formulations for reducing bovine emissions” (Elanco US Inc., priority 2015, dated 2026)", "key": {"cattle [1]": {"tested_on": "cattle", "experiment": "Reduction of carbon dioxide gas emissions from cattle fed lubabegron for 14 days in individual chambers", "format": "in vivo", "source_text": "Prepare lubabegron (L) as 4.5 g/lb of Type A Medicated Article. In an appropriate facility having cattle chambers or rooms for individual animals (chambers), test ten cycles of twelve cattle each, each cycle representing all dose (0, 1.25, 5, and 20 g/ton) with a mixture of genders (steer and heifer).\nUpon receipt of the cattle, allocate the cattle to chambers to acclimate for 7 days. After the acclimation phase, for 14 days orally treat via feed one fourth of the cattle allocated to chambers L 0 g/ton/day; one fourth 1.25 g/ton/day; 5 g/ton/day; and 20 g/ton/day (100% dry matter basis). Provide feed and water ad libitum. On day 14, collect body weight and load cattle for transport to the slaughter facility. On day 15, slaughter the cattle and evaluate the carcass. During the study, monitor and collect carbon dioxide gas emissions data. […] Using the process described above, the following results are achieved."}, "cattle [2]": {"tested_on": "cattle", "experiment": "Reduction of ammonia gas emissions from cattle fed lubabegron for 91 days in cattle pen enclosures", "format": "in vivo", "source_text": "Prepare lubabegron (L) as 4.5 g/lb of Type A Medicated Article. In a facility having at least eight cattle pen enclosures (CPEs), test two cycles of cattle, each cycle representing all dose (0, 1.25, 5, and 20 g/ton) and gender (steer and heifer) combinations. For the purpose of this example, a cycle refers to a group of 112 animals housed concurrently. Within each cycle, there are 2 cohorts of animals (56 animals per cohort). A cohort refers to a group of same gender animals representing each of the 4 doses. Up to 4 cycles are used to provide a total of 4 cohorts per gender.\nUpon receipt of the cattle, allocate the cattle to CPEs to acclimate for 7 days. After the acclimation phase, for 91 days orally treat via feed one fourth of the cattle allocated to CPEs L 0 g/ton/day; one fourth 1.25 g/ton/day; 5 g/ton/day; and 20 g/ton/day (100% dry matter basis). Provide feed and water ad libitum. On day 91, collect body weight and load cattle for transport to the slaughter facility. On day 92, slaughter the cattle and evaluate the carcass. During the study, monitor and collect ammonia gas emissions data. Measure the ammonia emissions over the treatment period and normalize by body weight (BW) for the period (Days 0-7, 0-14, 0-28, 0-56, and 0-91) and hot carcass weight (HCW) (Days 0-91) (g of gas/animal; g of gas/lb of live BW; g of gas/lb of HCW). Using the process described above, the following results are achieved."}}}
{"smiles": "CC(C)(Cc1ccc(Oc2ncccc2C#N)cc1)NC[C@H](O)COc1ccccc1-c1cccs1", "note": "[lubabegron]", "values": [{"measurement": "Reduction, as compared to control, g of CO2 gas/animal", "setting": "cattle [1]; 1.25 g/ton in feed, Day 0-7", "value": "(0.2%)"}, {"measurement": "Reduction, as compared to control, g of CO2 gas/lb of live BW", "setting": "cattle [1]; 1.25 g/ton in feed, Day 0-7", "value": 0, "unit": "%"}, {"measurement": "Reduction, as compared to control, g of CO2 gas/animal", "setting": "cattle [1]; 1.25 g/ton in feed, Day 0-14", "value": "(3%)"}, {"measurement": "Reduction, as compared to control, g of CO2 gas/lb of HCW", "setting": "cattle [1]; 1.25 g/ton in feed, Day 0-14", "value": 4, "unit": "%"}, {"measurement": "Reduction, as compared to control, g of CO2 gas/lb of live BW", "setting": "cattle [1]; 1.25 g/ton in feed, Day 0-14", "value": 2, "unit": "%"}, {"measurement": "Reduction, as compared to control, g of CO2 gas/animal", "setting": "cattle [1]; 1.25 g/ton in feed, Day 7-14", "value": "(5%)"}, {"measurement": "Reduction, as compared to control, g of CO2 gas/lb of HCW", "setting": "cattle [1]; 1.25 g/ton in feed, Day 7-14", "value": 6, "unit": "%"}, {"measurement": "Reduction, as compared to control, g of CO2 gas/lb of live BW", "setting": "cattle [1]; 1.25 g/ton in feed, Day 7-14", "value": 5, "unit": "%"}, {"measurement": "Reduction, as compared to control, g of CO2 gas/animal", "setting": "cattle [1]; 5 g/ton in feed, Day 0-7", "value": "(4%)"}, {"measurement": "Reduction, as compared to control, g of CO2 gas/lb of live BW", "setting": "cattle [1]; 5 g/ton in feed, Day 0-7", "value": 3, "unit": "%"}, {"measurement": "Reduction, as compared to control, g of CO2 gas/animal", "setting": "cattle [1]; 5 g/ton in feed, Day 0-14", "value": "(7%)"}, {"measurement": "Reduction, as compared to control, g of CO2 gas/lb of HCW", "setting": "cattle [1]; 5 g/ton in feed, Day 0-14", "value": 7, "unit": "%"}, {"measurement": "Reduction, as compared to control, g of CO2 gas/lb of live BW", "setting": "cattle [1]; 5 g/ton in feed, Day 0-14", "value": 6, "unit": "%"}, {"measurement": "Reduction, as compared to control, g of CO2 gas/animal", "setting": "cattle [1]; 5 g/ton in feed, Day 7-14", "value": "(10%)"}, {"measurement": "Reduction, as compared to control, g of CO2 gas/lb of HCW", "setting": "cattle [1]; 5 g/ton in feed, Day 7-14", "value": 10, "unit": "%"}, {"measurement": "Reduction, as compared to control, g of CO2 gas/lb of live BW", "setting": "cattle [1]; 5 g/ton in feed, Day 7-14", "value": 9, "unit": "%"}, {"measurement": "Reduction, as compared to control, g of CO2 gas/animal", "setting": "cattle [1]; 20 g/ton in feed, Day 0-7", "value": "(4%)"}, {"measurement": "Reduction, as compared to control, g of CO2 gas/lb of live BW", "setting": "cattle [1]; 20 g/ton in feed, Day 0-7", "value": 4, "unit": "%"}, {"measurement": "Reduction, as compared to control, g of CO2 gas/animal", "setting": "cattle [1]; 20 g/ton in feed, Day 0-14", "value": "(7%)"}, {"measurement": "Reduction, as compared to control, g of CO2 gas/lb of HCW", "setting": "cattle [1]; 20 g/ton in feed, Day 0-14", "value": 7, "unit": "%"}, {"measurement": "Reduction, as compared to control, g of CO2 gas/lb of live BW", "setting": "cattle [1]; 20 g/ton in feed, Day 0-14", "value": 6, "unit": "%"}, {"measurement": "Reduction, as compared to control, g of CO2 gas/animal", "setting": "cattle [1]; 20 g/ton in feed, Day 7-14", "value": "(9%)"}, {"measurement": "Reduction, as compared to control, g of CO2 gas/lb of HCW", "setting": "cattle [1]; 20 g/ton in feed, Day 7-14", "value": 10, "unit": "%"}, {"measurement": "Reduction, as compared to control, g of CO2 gas/lb of live BW", "setting": "cattle [1]; 20 g/ton in feed, Day 7-14", "value": 9, "unit": "%"}, {"measurement": "Reduction, as compared to control, g of NH3 gas/animal", "setting": "cattle [2]; 1.25 g/ton in feed, Day 0-7", "value": "5% (5%)"}, {"measurement": "Reduction, as compared to control, g of NH3 gas/lb of live BW", "setting": "cattle [2]; 1.25 g/ton in feed, Day 0-7", "value": "5% (5%)"}, {"measurement": "Reduction, as compared to control, g of NH3 gas/animal", "setting": "cattle [2]; 1.25 g/ton in feed, Day 0-14", "value": 12, "unit": "%"}, {"measurement": "Reduction, as compared to control, g of NH3 gas/lb of live BW", "setting": "cattle [2]; 1.25 g/ton in feed, Day 0-14", "value": 14, "unit": "%"}, {"measurement": "Reduction, as compared to control, g of NH3 gas/animal", "setting": "cattle [2]; 1.25 g/ton in feed, Day 0-28", "value": 15, "unit": "%"}, {"measurement": "Reduction, as compared to control, g of NH3 gas/lb of live BW", "setting": "cattle [2]; 1.25 g/ton in feed, Day 0-28", "value": 16, "unit": "%"}, {"measurement": "Reduction, as compared to control, g of NH3 gas/animal", "setting": "cattle [2]; 1.25 g/ton in feed, Day 0-56", "value": 11, "unit": "%"}, {"measurement": "Reduction, as compared to control, g of NH3 gas/lb of live BW", "setting": "cattle [2]; 1.25 g/ton in feed, Day 0-56", "value": 13, "unit": "%"}, {"measurement": "Reduction, as compared to control, g of NH3 gas/animal", "setting": "cattle [2]; 1.25 g/ton in feed, Day 0-91", "value": 9, "unit": "%"}, {"measurement": "Reduction, as compared to control, g of NH3 gas/lb of HCW", "setting": "cattle [2]; 1.25 g/ton in feed, Day 0-91", "value": 13, "unit": "%"}, {"measurement": "Reduction, as compared to control, g of NH3 gas/lb of live BW", "setting": "cattle [2]; 1.25 g/ton in feed, Day 0-91", "value": 11, "unit": "%"}, {"measurement": "Reduction, as compared to control, g of NH3 gas/animal", "setting": "cattle [2]; 5 g/ton in feed, Day 0-7", "value": 7, "unit": "%"}, {"measurement": "Reduction, as compared to control, g of NH3 gas/lb of live BW", "setting": "cattle [2]; 5 g/ton in feed, Day 0-7", "value": 8, "unit": "%"}, {"measurement": "Reduction, as compared to control, g of NH3 gas/animal", "setting": "cattle [2]; 5 g/ton in feed, Day 0-14", "value": 16, "unit": "%"}, {"measurement": "Reduction, as compared to control, g of NH3 gas/lb of live BW", "setting": "cattle [2]; 5 g/ton in feed, Day 0-14", "value": 17, "unit": "%"}, {"measurement": "Reduction, as compared to control, g of NH3 gas/animal", "setting": "cattle [2]; 5 g/ton in feed, Day 0-28", "value": 20, "unit": "%"}, {"measurement": "Reduction, as compared to control, g of NH3 gas/lb of live BW", "setting": "cattle [2]; 5 g/ton in feed, Day 0-28", "value": 21, "unit": "%"}, {"measurement": "Reduction, as compared to control, g of NH3 gas/animal", "setting": "cattle [2]; 5 g/ton in feed, Day 0-56", "value": 16, "unit": "%"}, {"measurement": "Reduction, as compared to control, g of NH3 gas/lb of live BW", "setting": "cattle [2]; 5 g/ton in feed, Day 0-56", "value": 18, "unit": "%"}, {"measurement": "Reduction, as compared to control, g of NH3 gas/animal", "setting": "cattle [2]; 5 g/ton in feed, Day 0-91", "value": 12, "unit": "%"}, {"measurement": "Reduction, as compared to control, g of NH3 gas/lb of HCW", "setting": "cattle [2]; 5 g/ton in feed, Day 0-91", "value": 16, "unit": "%"}, {"measurement": "Reduction, as compared to control, g of NH3 gas/lb of live BW", "setting": "cattle [2]; 5 g/ton in feed, Day 0-91", "value": 14, "unit": "%"}, {"measurement": "Reduction, as compared to control, g of NH3 gas/animal", "setting": "cattle [2]; 20 g/ton in feed, Day 0-7", "value": 21, "unit": "%"}, {"measurement": "Reduction, as compared to control, g of NH3 gas/lb of live BW", "setting": "cattle [2]; 20 g/ton in feed, Day 0-7", "value": 22, "unit": "%"}, {"measurement": "Reduction, as compared to control, g of NH3 gas/animal", "setting": "cattle [2]; 20 g/ton in feed, Day 0-14", "value": "27% (27%)"}, {"measurement": "Reduction, as compared to control, g of NH3 gas/lb of live BW", "setting": "cattle [2]; 20 g/ton in feed, Day 0-14", "value": "27% (27%)"}, {"measurement": "Reduction, as compared to control, g of NH3 gas/animal", "setting": "cattle [2]; 20 g/ton in feed, Day 0-28", "value": 25, "unit": "%"}, {"measurement": "Reduction, as compared to control, g of NH3 gas/lb of live BW", "setting": "cattle [2]; 20 g/ton in feed, Day 0-28", "value": 26, "unit": "%"}, {"measurement": "Reduction, as compared to control, g of NH3 gas/animal", "setting": "cattle [2]; 20 g/ton in feed, Day 0-56", "value": "19% (19%)"}, {"measurement": "Reduction, as compared to control, g of NH3 gas/lb of live BW", "setting": "cattle [2]; 20 g/ton in feed, Day 0-56", "value": "19% (19%)"}, {"measurement": "Reduction, as compared to control, g of NH3 gas/animal", "setting": "cattle [2]; 20 g/ton in feed, Day 0-91", "value": 13, "unit": "%"}, {"measurement": "Reduction, as compared to control, g of NH3 gas/lb of HCW", "setting": "cattle [2]; 20 g/ton in feed, Day 0-91", "value": 17, "unit": "%"}, {"measurement": "Reduction, as compared to control, g of NH3 gas/lb of live BW", "setting": "cattle [2]; 20 g/ton in feed, Day 0-91", "value": 15, "unit": "%"}]}
